# Measurements published in patent US4677108A, “4-oxo-pyrido[2,3-d]pyrimidinone derivatives” (Warner-Lambert Company, priority 1984, dated 1987).
# Experiments:
# [1] = tested on: a. coronaria (arteria coronaria); test: Isolated smooth muscle: inhibition of K+-depolarization contraction of vessel rings, a. coronaria; set-up: species or system rabbit; conditions: organ bath, mean diameter 0.5-1.0 mm, read-out: Concentration (IC50) effecting a semimaximal inhibition of the K+-depolarization contraction of vessel rings, a. coronaria
# From the text: (§1) Of rabbits (vessel ring segments, a basilaris, a. coronaria, a. saphena) are mounted in an organ bath in a way to allow the measurement of isometric contractions. Contractile activity is elicited by a potassium depolarization in Tyrode's solution. This experimetnal set-up is a well known standard model for the identification of substances blocking the calcium channels opened during the potassium depolarization (Fleckenstein,Calcium Antagonism in Heart and Smooth Muscle, J. Wiley & Sons, 1983).
# (§2) Concentrations (IC50, mol/l) of compounds
# (§3) effecting a semimaximal inhibition of the K+-
# (§4) depolarization contraction of vessel rings in the
# (§5) organ bath. A. bas. = arteria basilaris, a. cor. =
# (§6) arteria coronaria, a. saph. = arteria saphena of
# (§7) the rabbit; mean diameter 0.5-1.0 mm.
# [2] = tested on: a. saphena (arteria saphena); test: Isolated smooth muscle: inhibition of K+-depolarization contraction of vessel rings, a. saphena; set-up: species or system rabbit; conditions: Oryctolagus cuniculus, organ bath, mean diameter 0.5-1.0 mm, read-out: Concentration (IC50) effecting a semimaximal inhibition of the K+-depolarization contraction of vessel rings, a. saphena
# From the text: as §1, §2, §3, §4, §5, §6, §7
# [3] = tested on: a. basilaris (arteria basilaris); test: Isolated smooth muscle: inhibition of K+-depolarization contraction of vessel rings, a. basilaris; set-up: species or system rabbit; conditions: organ bath, mean diameter 0.5-1.0 mm, read-out: Concentration (IC50) effecting a semimaximal inhibition of the K+-depolarization contraction of vessel rings, a. basilaris
# From the text: as §1, §2, §3, §4, §5, §6, §7
# [4] = tested on: isolated papillary muscles of the guinea-pig; test: Isolated papillary muscles: changes in the contraction amplitude; conditions: field excitation 250/minute; for activation at 1 µM: at ED100, read-out: Δ% (percent change of contraction amplitude versus control) at ED100; for EC100: read-out: ED100 (effective concentration, maximal effect), contraction amplitude; for EC50: read-out: ED50 (effective concentration, semimaximal effect), contraction amplitude
# From the text: Papillary muscles from the left ventricle of the guinea-pig are mounted, like isolated vessels, in an organ bath in a way to allow the measurement of isometric contractions. Electric excitation is achieved by means of field excitation at a frequency of 250/minute (duration of excitation 10 msec., amplitude supramaximal).
# Changes in the contraction amplitude of isolated
# papillary muscles of the guinea-pig (excitation
# frequency 250/minute, duration of excitation 10 msec.,
# excitation amplitude 10-20 V field excitation). IC =
# inhibition concentration, ED = effective concentration
# in mol/l. Indices 50 and 100 correspond to semi-
# maximal and maximal effect. Δ% = percent change of
# contraction amplitude versus control.
# [5] = tested on: spontaneously hypertensive rats (SHR); test: Spontaneously hypertensive rat: systolic blood pressure after oral administration; format: in vivo
# From the text: This test model employing hypertension of genetic origin served to test Example Number 1(a) for its antihypertensive efficacy.
# Effect of Example Number 1a on the systolic blood
# pressure of spontaneously hypertensive rats (SHR)
# [6] = tested on: rats anesthetized with inactin; test: Anesthetized rat (inactin): blood pressure and heart rate; format: in vivo; conditions: 100 mg/kg ID (n=3)
# Protocol: This test model using rats anesthetized with inactin served to test Example Number 1a in a dosage of 100 mg/kg ID (n=3). The heart rate remained unchanged whereas the blood pressure fell by 40% below the starting value (75 minutes PA).
# [7] = Cavia porcellus, 10 msec., 10-20 V, maximal effect
# [8] = Cavia porcellus, 10 msec., 10-20 V, semimaximal effect
compound,measurement,setting,value
"CCOC(=O)C1=C(C)Nc2nc[nH]c(=O)c2C1c1ccccc1 (racemic) [Example 1, (±)-3,4,5,8-Tetrahydro-7-methyl-4-oxo-5-phenylpyrido[2,3-d]pyrimidine-6-carboxylic acid ethyl ester]",IC50,[1],10 µM
same,IC50,[2],7 µM
same,IC50,[3],8 µM
same,inhibition at 100 µM,"[4]; Cavia porcellus, at IC100, read-out: Δ% (percent change of contraction amplitude versus control) at IC100",27%
same,IC100,"[4]; Cavia porcellus, 10 msec., 10-20 V, maximal effect, read-out: IC100 (inhibition concentration, maximal effect), contraction amplitude",100 µM
same,IC50,"[4]; Cavia porcellus, 10 msec., 10-20 V, semimaximal effect, read-out: IC50 (inhibition concentration, semimaximal effect), contraction amplitude",20 µM
same,Δ% (percent change of contraction amplitude versus control) at IC50,[4]; at IC50,-13%
"CCOC(=O)C1=C(C)Nc2nc[nH]c(=O)c2C1c1ccccc1F (racemic) [Example 1a, (±)-5-(2-Fluorophenyl)-3,4,5,8-tetrahydro-7-methyl-4-oxo-pyrido[2,3-d]pyrimidine-6-carboxylic acid ethyl ester]",IC50,[1],1.5 µM
same,IC50,[2],1.2 µM
same,Change of systol. blood pressure in percent,"[5]; 12.5 mg/kg oral, 30 min.",-11%
same,Change of systol. blood pressure in percent,"[5]; 12.5 mg/kg oral, 120 min.",-4%
same,Change of systol. blood pressure in percent,"[5]; 12.5 mg/kg oral, 240 min.",+2%
same,Change of systol. blood pressure in percent,"[5]; 12.5 mg/kg oral, 24 h",-1%
same,Change of systol. blood pressure in percent,"[5]; 25 mg/kg oral, 30 min.",-24%
same,Change of systol. blood pressure in percent,"[5]; 25 mg/kg oral, 120 min.",-2%
same,Change of systol. blood pressure in percent,"[5]; 25 mg/kg oral, 240 min.",-1%
same,Change of systol. blood pressure in percent,"[5]; 25 mg/kg oral, 24 h",+5%
same,Change of systol. blood pressure in percent,"[5]; 50 mg/kg oral, 30 min.",-32%
same,Change of systol. blood pressure in percent,"[5]; 50 mg/kg oral, 120 min.",-8%
same,Change of systol. blood pressure in percent,"[5]; 50 mg/kg oral, 240 min.",+1%
same,Change of systol. blood pressure in percent,"[5]; 50 mg/kg oral, 24 h",+4%
same,Change of systol. blood pressure in percent,"[5]; 100 mg/kg oral, 30 min.",-40%
same,Change of systol. blood pressure in percent,"[5]; 100 mg/kg oral, 120 min.",-19%
same,Change of systol. blood pressure in percent,"[5]; 100 mg/kg oral, 240 min.",+2%
same,Change of systol. blood pressure in percent,"[5]; 100 mg/kg oral, 24 h",-4%
same,antihypertensive effect after oral administration,"[5]; oral, result in words","good and, dose-dependent, lasting antihypertensive effect"
same,heart rate,[6],unchanged
same,blood pressure fell below the starting value,[6]; 75 minutes PA,40%
same,IC50,[3],1.8 µM
same,activation at 1 µM,[4]; Cavia porcellus,52%
same,EC100,[4]; [7],1 µM
same,EC50,[4]; [8],0.015 µM
same,Δ% (percent change of contraction amplitude versus control) at ED50,[4],+26%
"CCOC(=O)C1=C(C)Nc2nc[nH]c(=O)c2C1c1ccccc1[N+](=O)[O-] (racemic) [Example 1b, (±)-3,4,5,8-Tetrahydro-7-methyl-5-(2-nitrophenyl)-4-oxo-pyrido[2,3-d]pyrimidine-6-carboxylic acid ethyl ester]",IC50,[1],~1 µM
same,IC50,[3],~0.4 µM
"CCOC(=O)C1=C(C)Nc2ncn(C(C)C)c(=O)c2C1c1ccccc1F (racemic) [Example 3, (±)-5-(2-Fluorophenyl)-3,4,5,8-tetrahydro-3-isopropyl-7-methyl-4-oxo-pyrido[2,3-d]pyrimidine-6-carboxylic acid ethyl ester]",IC50,[1],20 µM
same,IC50,[2],9 µM
same,IC50,[3],20 µM
same,activation at 1 µM,[4]; Cavia porcellus,30%
same,EC100,[4]; [7],1 µM
same,EC50,[4]; [8],0.022 µM
same,Δ% (percent change of contraction amplitude versus control) at ED50,[4],+15%
"CCOC(=O)C1=C(C)Nc2ncn(C(C)C)c(=O)c2C1c1ccccc1 (racemic) [Example 3a, (±)-3,4,5,8-Tetrahydro-3-isopropyl-7-methyl-4-oxo-5-phenyl-pyrido[2,3-d]pyrimidine-6-carboxylic acid ethyl ester]",IC50,[1],0.045 µM
same,IC50,[3],0.04 µM
